# Reference: article PMC6713165, “Identification of 1H-pyrazolo[3,4-b]pyridine derivatives as potent ALK-L1196M inhibitors” (Journal of Enzyme Inhibition and Medicinal Chemistry, 2019)
# Several values for one entry are separate records, joined by “and”; a condition that tells them apart may be missing. Identical values can stand only once. Like-named read-outs stand apart in the source and are kept apart here.
# Legend:
# H2228 (EML4-ALK) cells = assay: Anti-proliferation assay (CTG), H2228; type: cell-based; details: Homo sapiens, NCI-H2228, 72 h, mean ± SD of three independent experiments
# Method: (§1) ALK wt-TEL, ALK L1196M-TEL transformed Ba/F3 and H2228 cell lines were cultured in RPMI1640 (Welgene, # LM011-01). […] Parental Ba/F3 cells were cultured in RPMI1640 media supplemented with 10% foetal bovine serum and 1% penicillin/streptomycin solution in the presence of IL-3. The cells were maintained in a humidified atmosphere containing 5% CO2 at 37 °C.
# (§2) Cells (ALK wt-TEL, ALK L1196M-TEL and Parental Ba/F3: 1 × 10^4, H2228: 5 × 10^3) were plated in 96 well tissue culture plates. Each compound was added to each well at 10 dose points of three-fold serial dilution in DMSO. After treatment with each compound for 72 h, CTG assay solution (Promega, # G7572) was added to each well.
# c-Src = c-Src (Homo sapiens, UniProt P12931); assay: Biochemical kinase assay, c-Src
# Method: (§3) Biochemical kinase assay was performed by methods previously reported. Kinase reactions of all test compounds except 10g were carried out at 10 µM ATP. Kinase reaction of 10g was performed at three different concentrations of ATP (10/50/100 µM).
# ALK wt-TEL Ba/F3 cells [1] = assay: Apoptosis analysis (annexin V-FITC/PI, FACS), ALK wt-TEL Ba/F3; type: cell-based; details: ALK wt-TEL Ba/F3, 24 h, in words
# Method: (§4) After 24–48 h following compound treatment, cells were harvested and stained with annexin V (1:500 diluted in annexin V buffer) for 30 min and PI (1:200) solution for 30 min. 1 × 10^6 cells were analysed using flow cytometric analysis. For the cell cycle arrest analysis, cells were harvested by trypsinisation and fixed with 70% ethanol overnight at −20 °C. The next day, cells were harvested and washed with cold DPBS at 500 × g.
# Caco-2 cells = assay: Permeability assessment using Caco-2 cells; type: in vitro ADME, human
# Method: (§5) Stock solutions (10 mM) of reference compounds and 10g were diluted to a concentration of 10 µM with the transport buffer (HBSS + 1%BSA) and the test compounds were applied to the apical or basolateral side of the cell monolayer. […] In addition, the efflux ratio of each compound was also determined. Reference compounds and 10g were quantified by LC-MS/MS analysis based on the peak area ratio of analyte/the internal standard.
# [2] = Permeability assessment using Caco-2 cells; type: in vitro ADME, human; details: human
# Method: as §5
# ROS1 = ROS1 (Homo sapiens, UniProt P08922); assay: Biochemical kinase assay, ROS1
# Method: as §3
# [3] = test system: cleaved PARP and cleaved caspase-3 in ALK wt-TEL and ALK L1196M-TEL Ba/F3 cells; assay: Western blot of apoptosis markers; type: cell-based; details: 36 h, in words
# Method: Cells were harvested and lysed using IP buffer containing 50 mM HEPES (pH 7.4), 1% Triton X-100, 2 mM EDTA, 150 mM NaCl, 2.5 mM NaF, 5 mM Na3VO4, protease inhibitor cocktail tablet (Roche, # 11–878-580–001). The protein concentration was determined by Bradford assay. Proteins were separated using SDS-PAGE and transferred onto NC membrane. The membranes were blocked using 5% skim milk in TBS-T buffer. The rabbit polyclonal antibody against phospho-ALK (Tyr1604, # 3341), phospho-ERK1/2 (Thr202/Tyr204, # 8544), phospho- PLC-gamma (Tyr783, # 14008), phospho-STAT3 (Tyr705, # 4074) and cleaved caspase3 (# 9661) were purchased from Cell Signalling Technologies, and PARP1/2 (H-250, # sc-7150) and anti-β-actin (# sc-47778) antibody was obtained from Santa Cruz Biotechnology. All primary antibodies were diluted in TBS-T at 1:1000. Each primary antibody was incubated overnight at 4 °C, followed by the secondary antibody treatment for 1 h at room temperature. Secondary antibodies were purchased from genDEPOT. Proteins were detected using ECL substrate, and then exposed to X-ray film.
# ALK wt-TEL Ba/F3 cells [4] = assay: Anti-proliferation assay (CTG), ALK wt-TEL Ba/F3; type: cell-based; details: Mus musculus, BaF3
# Method: as §1, §2
# ALK-wt = ALK-wt (Homo sapiens, UniProt Q9UM73); assay: Radiometric biochemical kinase assay, ALK-wt
# Method: as §3
# c-Met = c-Met (Homo sapiens, UniProt P08581); assay: Biochemical kinase assay, c-Met
# Method: as §3
# [5] = test system: ALK L1196M-TEL Ba/F3 cells; assay: Apoptosis analysis (annexin V-FITC/PI, FACS), ALK L1196M-TEL Ba/F3; type: cell-based
# Method: as §4
# ALK-C1156Y = ALK-C1156Y (Homo sapiens, UniProt Q9UM73, C1156Y); assay: Radiometric biochemical kinase assay, ALK-C1156Y
# Method: as §3
# ALK-F1174L = ALK-F1174L (Homo sapiens, UniProt Q9UM73, F1174L); assay: Radiometric biochemical kinase assay, ALK-F1174L
# Method: as §3
# ALK-L1196M = ALK-L1196M (Homo sapiens, UniProt Q9UM73, L1196M); assay: Radiometric biochemical kinase assay, ALK-L1196M; details: radiometric kinase assay, 10 µM ATP
# Method: as §3
# ALK-T1151-L1152insT = ALK-T1151-L1152insT (Homo sapiens, UniProt Q9UM73, INS1151T); assay: Radiometric biochemical kinase assay, ALK-T1151-L1152insT
# Method: as §3
# H2228 cells = assay: Cell cycle arrest analysis (PI, FACS), H2228; type: cell-based; details: H2228, 1 µM, 24 h, in words
# Method: as §4, with “g. The cells were suspended in RNase/PI solution (Cell Signalling Technologies, # 4087).” for “g.”
# ALK-wt, sequence (Q9UM73 19-1620): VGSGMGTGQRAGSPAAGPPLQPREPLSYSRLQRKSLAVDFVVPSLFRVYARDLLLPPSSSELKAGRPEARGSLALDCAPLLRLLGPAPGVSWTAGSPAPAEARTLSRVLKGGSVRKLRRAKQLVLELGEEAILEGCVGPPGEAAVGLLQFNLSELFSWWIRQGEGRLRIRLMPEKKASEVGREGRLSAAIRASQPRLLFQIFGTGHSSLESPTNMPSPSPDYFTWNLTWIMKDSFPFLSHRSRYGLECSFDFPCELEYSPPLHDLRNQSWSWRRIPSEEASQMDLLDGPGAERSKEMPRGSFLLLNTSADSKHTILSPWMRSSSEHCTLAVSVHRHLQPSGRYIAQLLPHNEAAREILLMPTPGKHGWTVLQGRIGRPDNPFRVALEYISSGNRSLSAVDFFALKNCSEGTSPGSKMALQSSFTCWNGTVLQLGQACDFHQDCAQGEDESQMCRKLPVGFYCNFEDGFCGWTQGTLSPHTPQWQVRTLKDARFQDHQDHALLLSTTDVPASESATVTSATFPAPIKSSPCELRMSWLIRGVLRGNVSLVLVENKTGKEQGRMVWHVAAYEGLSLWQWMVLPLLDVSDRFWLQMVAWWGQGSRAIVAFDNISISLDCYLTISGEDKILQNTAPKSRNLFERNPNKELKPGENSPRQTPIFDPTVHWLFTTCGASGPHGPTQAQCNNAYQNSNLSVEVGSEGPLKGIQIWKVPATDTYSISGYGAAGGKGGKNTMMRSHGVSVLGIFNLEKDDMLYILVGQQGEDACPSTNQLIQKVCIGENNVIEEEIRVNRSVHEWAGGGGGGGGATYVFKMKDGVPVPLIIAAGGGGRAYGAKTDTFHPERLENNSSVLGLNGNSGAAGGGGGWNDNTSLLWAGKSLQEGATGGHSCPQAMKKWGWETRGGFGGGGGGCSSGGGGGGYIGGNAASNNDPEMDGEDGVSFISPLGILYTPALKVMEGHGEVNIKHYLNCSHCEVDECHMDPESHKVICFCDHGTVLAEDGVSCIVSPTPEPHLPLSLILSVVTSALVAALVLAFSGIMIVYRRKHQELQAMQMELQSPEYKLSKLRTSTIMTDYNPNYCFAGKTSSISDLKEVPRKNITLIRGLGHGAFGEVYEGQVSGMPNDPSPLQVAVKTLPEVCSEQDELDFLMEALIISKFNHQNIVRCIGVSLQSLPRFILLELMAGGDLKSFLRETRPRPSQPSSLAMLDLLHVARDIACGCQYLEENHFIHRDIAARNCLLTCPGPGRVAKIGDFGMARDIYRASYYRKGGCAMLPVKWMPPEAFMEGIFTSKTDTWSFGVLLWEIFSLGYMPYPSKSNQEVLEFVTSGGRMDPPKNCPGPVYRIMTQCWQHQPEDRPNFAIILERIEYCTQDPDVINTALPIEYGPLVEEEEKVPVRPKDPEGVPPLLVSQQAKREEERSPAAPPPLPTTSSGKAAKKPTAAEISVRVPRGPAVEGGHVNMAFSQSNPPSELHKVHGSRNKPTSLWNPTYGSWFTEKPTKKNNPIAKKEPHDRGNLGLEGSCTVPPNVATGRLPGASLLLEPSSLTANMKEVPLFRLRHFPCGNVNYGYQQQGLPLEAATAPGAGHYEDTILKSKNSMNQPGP
# c-Met, sequence (P08581 25-1390): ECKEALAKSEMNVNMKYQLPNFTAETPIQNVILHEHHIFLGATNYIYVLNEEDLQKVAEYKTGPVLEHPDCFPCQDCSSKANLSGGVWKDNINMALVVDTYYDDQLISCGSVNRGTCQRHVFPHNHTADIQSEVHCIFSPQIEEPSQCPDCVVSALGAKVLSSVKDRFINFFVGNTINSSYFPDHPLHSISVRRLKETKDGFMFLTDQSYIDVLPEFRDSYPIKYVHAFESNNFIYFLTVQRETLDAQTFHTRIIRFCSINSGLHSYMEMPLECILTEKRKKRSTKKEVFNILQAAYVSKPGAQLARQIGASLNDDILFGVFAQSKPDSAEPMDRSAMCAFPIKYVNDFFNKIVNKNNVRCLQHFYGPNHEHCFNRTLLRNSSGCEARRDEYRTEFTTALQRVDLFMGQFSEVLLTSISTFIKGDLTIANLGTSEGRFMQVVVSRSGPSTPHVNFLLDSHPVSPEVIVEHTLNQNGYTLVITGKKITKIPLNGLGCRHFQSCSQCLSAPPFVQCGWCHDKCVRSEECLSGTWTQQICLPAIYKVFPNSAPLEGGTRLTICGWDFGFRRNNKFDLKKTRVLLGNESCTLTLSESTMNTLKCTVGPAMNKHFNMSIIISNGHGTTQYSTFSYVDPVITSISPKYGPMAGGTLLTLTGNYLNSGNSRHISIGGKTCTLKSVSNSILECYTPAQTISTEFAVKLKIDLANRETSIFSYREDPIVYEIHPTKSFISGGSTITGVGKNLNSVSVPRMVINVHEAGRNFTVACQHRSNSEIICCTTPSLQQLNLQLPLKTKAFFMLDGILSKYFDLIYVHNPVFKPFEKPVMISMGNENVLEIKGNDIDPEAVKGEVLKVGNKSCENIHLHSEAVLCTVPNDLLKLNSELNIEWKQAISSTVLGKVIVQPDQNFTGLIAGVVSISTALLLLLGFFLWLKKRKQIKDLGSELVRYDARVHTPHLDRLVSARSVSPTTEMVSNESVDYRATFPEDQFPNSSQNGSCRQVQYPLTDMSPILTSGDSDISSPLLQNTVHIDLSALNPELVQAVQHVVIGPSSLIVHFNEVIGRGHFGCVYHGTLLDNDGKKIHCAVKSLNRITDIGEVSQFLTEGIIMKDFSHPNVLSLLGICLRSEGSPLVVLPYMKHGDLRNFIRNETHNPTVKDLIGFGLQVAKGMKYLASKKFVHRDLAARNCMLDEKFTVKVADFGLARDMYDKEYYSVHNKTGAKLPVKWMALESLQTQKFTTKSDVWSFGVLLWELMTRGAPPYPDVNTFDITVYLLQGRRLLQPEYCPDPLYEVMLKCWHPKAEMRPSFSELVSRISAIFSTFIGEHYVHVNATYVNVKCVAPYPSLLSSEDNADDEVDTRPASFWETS
# ALK-C1156Y, sequence (Q9UM73 19-1620 C1156Y): as the sequence (Q9UM73 19-1620) above, with C1138Y counted along it
# ALK-F1174L, sequence (Q9UM73 19-1620 F1174L): as the sequence (Q9UM73 19-1620) above, with F1156L counted along it
# ALK-L1196M, sequence (Q9UM73 19-1620 L1196M): as the sequence (Q9UM73 19-1620) above, with L1178M counted along it
# ALK-T1151-L1152insT, sequence (Q9UM73 with tags, fused parts or gaps INS1151T limits assumed): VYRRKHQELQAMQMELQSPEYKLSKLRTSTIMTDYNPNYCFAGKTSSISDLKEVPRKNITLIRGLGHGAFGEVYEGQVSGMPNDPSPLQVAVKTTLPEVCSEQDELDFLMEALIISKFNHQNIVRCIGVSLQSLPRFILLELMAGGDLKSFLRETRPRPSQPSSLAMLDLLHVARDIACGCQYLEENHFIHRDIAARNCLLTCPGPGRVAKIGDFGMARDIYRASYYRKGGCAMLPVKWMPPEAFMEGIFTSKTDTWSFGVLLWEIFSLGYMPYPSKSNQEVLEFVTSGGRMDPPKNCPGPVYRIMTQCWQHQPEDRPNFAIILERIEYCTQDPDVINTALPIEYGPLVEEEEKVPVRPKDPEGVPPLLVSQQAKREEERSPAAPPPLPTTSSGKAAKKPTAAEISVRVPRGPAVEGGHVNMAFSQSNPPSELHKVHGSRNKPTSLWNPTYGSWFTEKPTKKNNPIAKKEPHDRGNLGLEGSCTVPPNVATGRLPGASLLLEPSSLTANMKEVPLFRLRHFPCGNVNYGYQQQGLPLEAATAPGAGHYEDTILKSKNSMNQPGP
# c-Src, sequence (P12931 whole entry): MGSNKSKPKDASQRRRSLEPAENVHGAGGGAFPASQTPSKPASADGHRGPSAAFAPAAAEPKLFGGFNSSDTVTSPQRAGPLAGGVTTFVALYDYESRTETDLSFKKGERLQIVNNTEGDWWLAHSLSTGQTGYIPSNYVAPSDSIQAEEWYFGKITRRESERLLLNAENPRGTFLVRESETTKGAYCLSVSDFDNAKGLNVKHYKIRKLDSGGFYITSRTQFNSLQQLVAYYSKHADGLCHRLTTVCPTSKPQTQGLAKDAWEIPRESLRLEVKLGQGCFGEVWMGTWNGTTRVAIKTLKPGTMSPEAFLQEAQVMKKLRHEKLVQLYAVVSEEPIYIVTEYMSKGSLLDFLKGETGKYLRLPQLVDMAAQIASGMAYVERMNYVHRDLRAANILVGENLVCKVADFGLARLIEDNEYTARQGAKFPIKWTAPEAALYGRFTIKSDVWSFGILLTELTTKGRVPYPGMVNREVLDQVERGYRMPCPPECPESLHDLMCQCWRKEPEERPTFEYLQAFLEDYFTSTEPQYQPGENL
smiles,measurement,setting,value
"CN1CCN(c2ccc(C(=O)Nc3n[nH]c4ncc(S(=O)(=O)c5cccc(F)c5)cc34)cc2)CC1 [10g, N-(5-((3-Fluorophenyl)sulfonyl)-1H-pyrazolo[3,4-b]pyridin-3-yl)-4–(4-methylpiperazin-1-yl)benzamide]",GI50,H2228 (EML4-ALK) cells,219 ± 50 nM
same,IC50,c-Src,7 nM
same,number of apoptotic cells (FACS),ALK wt-TEL Ba/F3 cells [1],increases the number of apoptotic cells in a dose-dependent manner
same,Rank Papp,Caco-2 cells; Caco-2 permeability class from Papp (A to B),moderate
same,Rank P-gp,Caco-2 cells; P-gp substrate status from efflux ratio,not a substrate
same,"Papp A→B at 120 min, 10 µM","[2]; Caco-2, Caco-2, 10 µM, 120 min, 37 °C, HBSS + 1%BSA, read-out: Mean Papp A to B",2.56 ×10⁻⁶ cm/s
same,"recovery at 120 min, 10 µM","[2]; Caco-2, Caco-2, 10 µM, 120 min, read-out: Mean recovery % A to B",74.2%
same,"recovery at 120 min, 10 µM","[2]; Caco-2, Caco-2, 10 µM, 120 min, read-out: Mean recovery % B to A",92.3%
same,"Papp A→B at 120 min, 10 µM","[2]; Caco-2, Caco-2 permeability class from Papp (A to B), read-out: Rank Papp",2.5 to 10 ×10⁻⁶ cm/s
same,"efflux ratio at 120 min, 10 µM","[2]; Caco-2, 10 µM, 120 min",1.85
same,"Papp B→A at 120 min, 10 µM","[2]; Caco-2, 10 µM, 120 min, 37 °C, HBSS + 1%BSA",4.74 ×10⁻⁶ cm/s
same,IC50,ROS1,< 1 nM
same,levels of cleaved PARP and cleaved caspase-3 (western blot),[3],increases in the levels of cleaved PARP and cleaved caspase-3
same,GI50,"ALK wt-TEL Ba/F3 cells [4]; 72 h, CTG, mean ± SD of three independent experiments, read-out: GI50 Ba/F3 cell lines ALK wt-TEL",205 ± 60 nM
same,GI50,"ALK wt-TEL Ba/F3 cells [4]; stated in text for both ALK-driven Ba/F3 lines (ALK wt-TEL and ALK L1196M-TEL), read-out: GI50 ALK-driven Ba/F3 cells",< 205 nM
same,change in IC50 against ALK-wt on 10-fold increase in ATP concentration,ALK-wt; 10 vs 100 µM ATP,50 fold
same,IC50,"ALK-wt; IC50 ALK-wt [ATP](50 μM), 50 μM ATP",17.3 nM
same,IC50,"ALK-wt; IC50 ALK-wt [ATP](100 μM), 100 μM ATP",24 nM and 24.9 nM
same,IC50,"ALK-wt; radiometric kinase assay, 10 µM ATP, read-out: IC50 ALK-wt",< 0.5 nM
same,"selectivity, more potent against ALK-wt than c-Met",c-Met; ALK-wt vs c-Met IC50,over 7000 fold
same,IC50,c-Met; biochemical kinase assay,3780 nM
same,number of apoptotic cells (FACS),"[5]; ALK L1196M-TEL Ba/F3, 24 h, in words",increases the number of apoptotic cells in a dose-dependent manner
same,apoptosis induction compared with crizotinib,"[5]; ALK L1196M-TEL Ba/F3, in words",more effectively than does crizotinib
same,IC50,ALK-C1156Y,1.81 nM
same,IC50,ALK-F1174L,8.17 nM
same,IC50,ALK-L1196M,< 0.5 nM
same,IC50,ALK-T1151-L1152insT,6.19 nM
same,cell cycle arrest,H2228 cells,significant enhancement of G1-S arrest
